From patent publication US6437184B1, “Oxime compounds, their use, and intermediates for their production” (Sumitomo Chemical Company, Limited, priority 1997, dated 2002)

system: Musca domestica; test: Insecticidal test against Musca domestica; assay type: in vivo; settings: 24 h, 500 ppm water dilution, 0.7 ml on filter paper with sucrose, female adults, after 1 day, read-out: mortality
Method: In the bottom of a polyethylene cup having a diameter of 5.5 cm was placed a piece of filter paper having the same size. A 200-fold water dilution (500 ppm) of a test compound formulation obtained according to Formulation Example 1 was added dropwise at a volume of 0.7 ml on the filter paper, and about 30 mg of sucrose as a diet was uniformly placed thereon. Ten female adults of houseflies (Musca domestica) were set free in the cup, and the cup was kept covered. After 1 day, the survival of the adults was determined to determine the mortality.

Compound	mortality at 500 µg/mL [%]
C=CCON=Cc1cccc(COc2c(Cl)cc(OCC=C(Cl)Cl)cc2Cl)c1 [(330), 3-(2,6-dichloro-4-(3,3-dichloro-2-propenyloxy)phenoxymethyl)benzaldehyde O-allyl oxime]	≥ 80
CC(=NOCCCCOc1c(Cl)cc(OCC=C(Cl)Cl)cc1Cl)c1ccccn1 [(689), methyl 2-pyridyl ketone O-(4-(2,6-dichloro-4-(3,3-dichloro-2-propenyloxy)phenoxy)butyl)oxime]	≥ 80
CCON=Cc1ccc(OCCOc2c(Cl)cc(OCC=C(Cl)Cl)cc2Cl)cc1 [(287), 4-(2-(2,6-dichloro-4-(3,3-dichloro-2-propenyloxy)phenoxy)-ethoxy)benzaldehyde O-ethyloxime]	≥ 80
CON=CCCCOc1c(Cl)cc(OCC=C(Cl)Cl)cc1Cl [(29), 4-(2,6-dichloro-4-(3,3-dichloro-2-propenyloxy)phenoxy)butanal O-methyloxime]	≥ 80
CCCCCC=NOCCCCCCOc1c(Cl)cc(OCC=C(Cl)Cl)cc1Cl [(551), hexanal O-(6-(2,6-dichloro-4-(3,3-dichloro-2-propenyloxy)phenoxy)hexyl)oxime]	≥ 80
CC(C)CON=CCOCCCCCOc1c(Cl)cc(OCC=C(Cl)Cl)cc1Cl [(155), 5-(2,6-dichloro-4-(3,3-dichloro-2-propenyloxy)phenoxy)pentyloxyacetaldehyde O-isobutyloxime]	≥ 80
COc1ccc(CON=CCCCCOc2c(Cl)cc(OCC=C(Cl)Cl)cc2Cl)cc1 [(22), 5-(2,6-dichloro-4-(3,3-dichloro-2-propenyloxy)phenoxy)pentanal O-(4-methoxybenzyl)oxime]	≥ 80
C=CCON=CCOCCCCOc1c(Cl)cc(OCC=C(Cl)Cl)cc1Cl [(4), 4-(2,6-dichloro-4-(3,3-dichloro-2-propenyloxy)phenoxy)butyloxyacetaldehyde O-(2-propenyl)oxime]	≥ 80
CCON=C(C)COCCCCCOc1c(Cl)cc(OCC=C(Cl)Cl)cc1Cl [(176), 5-(2,6-dichloro-4-(3,3-dichloro-2-propenyloxy)phenoxy)pentyloxyacetone O-ethyloxime]	≥ 80
CC(C)=NOCCCCCOc1c(Cl)cc(OCC=C(Cl)Cl)cc1Cl [(560), acetone O-(5-(2,6-dichloro-4-(3,3-dichloro-2-propenyloxy)phenoxy)pentyl)oxime]	≥ 80
CCON=CCOCCCCCOc1c(Cl)cc(OCC=C(Cl)Cl)cc1Cl [(159), 5-(2,6-dichloro-4-(3,3-dichloro-2-propenyloxy)phenoxy)pentyloxyacetaldehyde O-ethyloxime]	≥ 80
CC(C)ON=CCOCCCCCOc1c(Cl)cc(OCC=C(Cl)Cl)cc1Cl [(153), 5-(2,6-dichloro-4-(3,3-dichloro-2-propenyloxy)phenoxy)pentyloxyacetaldehyde O-isopropyloxime]	≥ 80
ClC(Cl)=CCOc1cc(Cl)c(OCCCCC=NOCC(Cl)(Cl)Cl)c(Cl)c1 [(170), 5-(2,6-dichloro-4-(3,3-dichloro-2-propenyloxy)phenoxy)pentanal O-(2,2,2-trichloroethyl)oxime]	≥ 80
CCCCOCC=NOCCCCCOc1c(Cl)cc(OCC=C(Cl)Cl)cc1Cl [(565), n-butyloxyacetaldehyde O-(5-(2,6-dichloro-4-(3,3-dichloro-2-propenyloxy)phenoxy)pentyl)oxime]	≥ 80
CCCON=CCCCCOc1c(Cl)cc(OCC=C(Cl)Cl)cc1Cl [(18), 5-(2,6-dichloro-4-(3,3-dichloro-2-propenyloxy)phenoxy)pentanal O-n-propyloxime]	≥ 80
CCON=CCCCOc1c(Cl)cc(OCC=C(Cl)Cl)cc1Cl [(28), 4-(2,6-dichloro-4-(3,3-dichloro-2-propenyloxy)phenoxy)butanal O-ethyloxime]	≥ 80
C=CCON=CCCCCOc1c(Cl)cc(OCC=C(Cl)Cl)cc1Cl [(19), 5-(2,6-dichloro-4-(3,3-dichloro-2-propenyloxy)phenoxy)pentanal O-(2-propenyl)oxime]	≥ 80
CON=Cc1ccc(OCCCOc2c(Cl)cc(OCC=C(Cl)Cl)cc2Cl)cc1 [(305), 4-(3-(2,6-dichloro-4-(3,3-dichloro-2-propenyloxy)phenoxy)propyloxy)benzaldehyde O-methyloxime]	≥ 80
CON=CCOCCCCOc1c(Cl)cc(OCC=C(Cl)Cl)cc1Cl [(7), 4-(2,6-dichloro-4-(3,3-dichloro-2-propenyloxy)phenoxy)butyloxyacetaldehyde O-methyloxime]	≥ 80
ClC(Cl)=CCOc1cc(Cl)c(OCCCCCON=C2CCCCC2)c(Cl)c1 [(566), cyclohexanone O-(5-(2,6-dichloro-4-(3,3-dichloro-2-propenyloxy)phenoxy)pentyl)oxime]	≥ 80
CCON=CCOCCCCOc1c(Cl)cc(OCC=C(Cl)Cl)cc1Cl [(1), 4-(2,6-dichloro-4-(3,3-dichloro-2-propenyloxy)phenoxy)butyloxyacetaldehyde O-ethyloxime]	≥ 80
CC(COCCCCCOc1c(Cl)cc(OCC=C(Cl)Cl)cc1Cl)=NOCc1ccccc1 [(175), 5-(2,6-dichloro-4-(3,3-dichloro-2-propenyloxy)phenoxy)pentyloxyacetone O-benzyloxime]	≥ 80
CCCCON=Cc1ccc(COc2c(Cl)cc(OCC=C(Cl)Cl)cc2Cl)cc1 [(376), 4-((2,6-dichloro-4-(3,3-dichloro-2-propenyloxy)phenoxy)methyl)benzaldehyde O-butyloxime]	≥ 80
CC=NOCCCCCOc1c(Cl)cc(OCC=C(Cl)Cl)cc1Cl [(541), acetaldehyde O-(5-(2,6-dichloro-4-(3,3-dichloro-2-propenyloxy)phenoxy)pentyl)oxime]	≥ 80
CON=CCOCCCCCOc1c(Cl)cc(OCC=C(Cl)Cl)cc1Cl [(158), 5-(2,6-dichloro-4-(3,3-dichloro-2-propenyloxy)phenoxy)pentyloxyacetaldehyde O-methyloxime]	≥ 80

system: Cydia pomonella; test: Insecticidal test against Cydia pomonella; assay type: in vivo; settings: 168 h, 100 ppm water dilution, 0.2 ml on surface of artificial diet, eggs just before hatching, after 7 days
Method: A water dilution (100 ppm) of a test compound formulation obtained according to Formulation Example 1 was added dropwise at a volume of 0.2 ml and spread over the surface of an artificial diet having a weight of 3 g, which had been prepared in a 30 ml polyethylene cup. After air drying, placed in the cup was a piece of wax paper (about 2.5 cm square) having about 20 eggs which had been laid by Cydia pomonella and were just before hatching. Four pieces of such wax paper were used for each treatment. After 7 days, the mortality of the larvae was determined.

Compound	mortality at 100 µg/mL [%]
CC(=NOCCOc1c(Cl)cc(OCC=C(Cl)Cl)cc1Cl)c1ccc(C(F)(F)F)cc1 [(549), 4′-(trifluoromethyl)acetophenone O-(2-(2,6-dichloro-4-(3,3-dichloro-2-propenyloxy)phenoxy)ethyl)oxime]	≥ 80
ClC(Cl)=CCOc1cc(Cl)c(OCCCCCON=C2CCSCC2)c(Cl)c1 [(572), tetrahydrothiopyran-4-one O-(5-(2,6-dichloro-4-(3,3-dichloro-2-propenyloxy)phenoxy)pentyl)oxime]	≥ 80
CC(=NOCC=C(Br)Br)c1ccc(OCCCCOc2c(Cl)cc(OCC=C(Cl)Cl)cc2Cl)cc1 [(300), 4′-(4-(2,6-dichloro-4-(3,3-dichloro-2-propenyloxy)phenoxy)butyloxy)acetophenone O-(3,3-dibromo-2-propenyl)oxime]	≥ 80
CC(C)CON=Cc1cccc(COc2c(Cl)cc(OCC=C(Cl)Cl)cc2Cl)c1 [(381), 3-((2,6-dichloro-4-(3,3-dichloro-2-propenyloxy)phenoxy)methyl)benzaldehyde O-iso-butyloxime]	≥ 80
CON=Cc1ccc(CCCOc2c(Cl)cc(OCC=C(Cl)Cl)cc2Cl)cc1 [(365), 4-(3-(2,6-dichloro-4-(3,3-dichloro-2-propenyloxy)phenoxy)propyl)benzaldehyde O-methyloxime]	≥ 80
FC(F)(F)c1ccc(C=NOCCOc2c(Cl)cc(OCC=C(Cl)Cl)cc2Cl)cc1 [(550), 4-(trifluoromethyl)benzaldehyde O-(2-(2,6-dichloro-4-(3,3-dichloro-2-propenyloxy)phenoxy)ethyl)oxime]	≥ 80
ClC(Cl)=CCOc1cc(Cl)c(OCCCC=NOCc2ccccc2)c(Cl)c1 [(27), 4-(2,6-dichloro-4-(3,3-dichloro-2-propenyloxy)phenoxy)butanal O-benzyloxime]	≥ 80
ClC(Cl)=CCOc1cc(Cl)c(OCCCCCCON=C2CCSCC2)c(Cl)c1 [(575), tetrahydrothiopyran-4-one O-(6-(2,6-dichloro-4-(3,3-dichloro-2-propenyloxy)phenoxy)hexyl)oxime]	≥ 80
CCCON=Cc1cccc(COc2c(Cl)cc(OCC=C(Cl)Cl)cc2Cl)c1 [(379), 3-((2,6-dichloro-4-(3,3-dichloro-2-propenyloxy)phenoxy)methyl)benzaldehyde O-propyloxime]	≥ 80
CC(C)Oc1ccc(C=NOCCCCOc2c(Cl)cc(OCC=C(Cl)Cl)cc2Cl)cc1 [(579), 4-isopropoxybenzaldehyde O-(4-(2,6-dichloro-4-(3,3-dichloro-2-propenyloxy)phenoxy)butyl)oxime]	≥ 80
CCON=C(C)c1ccc(OCCCCOc2c(Cl)cc(OCC=C(Cl)Cl)cc2Cl)cc1 [(297), 4′-(4-(2,6-dichloro-4-(3,3-dichloro-2-propenyloxy)phenoxy)butyloxy)acetophenone O-ethyloxime]	≥ 80
CC(C)CON=Cc1ccc(CCCOc2c(Cl)cc(OCC=C(Cl)Cl)cc2Cl)cc1 [(382), 4-(3-(2,6-dichloro-4-(3,3-dichloro-2-propenyloxy)phenoxy)propyl)benzaldehyde O-iso-butyloxime]	≥ 80
O=[N+]([O-])c1ccc(C=NOCCCCOc2c(Cl)cc(OCC=C(Cl)Cl)cc2Cl)cc1 [(578), 4-nitrobenzaldehyde O-(4-(2,6-dichloro-4-(3,3-dichloro-2-propenyloxy)phenoxy)butyl)oxime]	≥ 80
